# How the values were obtained:
# Experiment in all cases: relative viability (nuclei count vs DMSO), 5 days (fraction); higher = more cells survive
# A549 = system: A549
# How it was run: (§1)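 Cells from lung cancer lines were seeded into 1536-well plates and, one day later, dosed by pin tool. Treatments were either a single drug or a fixed dose of an anchor drug with five library-drug doses (not always all listed) in √10 steps. After 5 days, nuclei were stained in a one-step fixation (final 0.05% Triton X-100, 1% formaldehyde, 1 ug/ml Hoechst) and counted on 4× images, and relative viability is the treated-to-vehicle nuclei ratio, as the median of duplicate plates.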
# LK-2 = system: LK-2
# How it was run: as §1
# Calu-6 = system: Calu-6
# How it was run: as §1
# NCI-H1703 = system: NCI-H1703
# How it was run: as §1
# NCI-H1299 = system: NCI-H1299
# How it was run: as §1
# NCI-H1734 = system: NCI-H1734
# How it was run: as §1
# CAL-12T = system: CAL-12T
# How it was run: as §1
# A-427 = system: A-427
# How it was run: as §1
# NCI-H2009 = system: NCI-H2009
# How it was run: as §1
# UMC-11 = system: UMC-11
# How it was run: as §1
# EBC-1 = system: EBC-1
# How it was run: as §1
# IA-LM = system: IA-LM
# How it was run: as §1
compound,measurement,setting,value
COc1cc2nccc(Oc3ccc(NC(=O)Nc4cc(C)on4)c(Cl)c3)c2cc1OC [Tivozanib] + Cc1nc(NC(=O)N2CCC[C@H]2C(N)=O)sc1-c1ccnc(C(C)(C)C(F)(F)F)c1 [Alpelisib] (partner 2 µM),relative viability,A549; first compound 0.005 µM,0.715
same,relative viability,A549; first compound 0.01581 µM,0.754
same,relative viability,A549; first compound 0.05 µM,0.793
same,relative viability,A549; first compound 0.1581 µM,0.612
same,relative viability,A549; first compound 0.5 µM,0.774
same,relative viability,LK-2; first compound 0.005 µM,0.93
same,relative viability,LK-2; first compound 0.01581 µM,1.19
same,relative viability,LK-2; first compound 0.05 µM,1.55
same,relative viability,LK-2; first compound 0.1581 µM,0.84
same,relative viability,LK-2; first compound 0.5 µM,0.896
same,relative viability,Calu-6; first compound 0.005 µM,0.993
same,relative viability,Calu-6; first compound 0.01581 µM,0.969
same,relative viability,Calu-6; first compound 0.05 µM,0.943
same,relative viability,Calu-6; first compound 0.1581 µM,0.863
same,relative viability,Calu-6; first compound 0.5 µM,0.874
same,relative viability,NCI-H1703; first compound 0.005 µM,0.262
same,relative viability,NCI-H1703; first compound 0.01581 µM,0.179
same,relative viability,NCI-H1703; first compound 0.05 µM,0.201
same,relative viability,NCI-H1703; first compound 0.1581 µM,0.155
same,relative viability,NCI-H1703; first compound 0.5 µM,0.203
same,relative viability,NCI-H1299; first compound 0.005 µM,1.09
same,relative viability,NCI-H1299; first compound 0.01581 µM,1.11
same,relative viability,NCI-H1299; first compound 0.05 µM,1.08
same,relative viability,NCI-H1299; first compound 0.1581 µM,1.13
same,relative viability,NCI-H1299; first compound 0.5 µM,1.06
same,relative viability,NCI-H1734; first compound 0.005 µM,0.656
same,relative viability,NCI-H1734; first compound 0.01581 µM,0.66
same,relative viability,NCI-H1734; first compound 0.05 µM,0.702
same,relative viability,NCI-H1734; first compound 0.1581 µM,0.536
same,relative viability,NCI-H1734; first compound 0.5 µM,0.727
same,relative viability,CAL-12T; first compound 0.005 µM,1.11
same,relative viability,CAL-12T; first compound 0.01581 µM,1.07
same,relative viability,CAL-12T; first compound 0.05 µM,1.31
same,relative viability,CAL-12T; first compound 0.5 µM,1.32
same,relative viability,A-427; first compound 0.005 µM,1.05
same,relative viability,A-427; first compound 0.01581 µM,1.1
same,relative viability,A-427; first compound 0.05 µM,1.12
same,relative viability,A-427; first compound 0.1581 µM,0.925
same,relative viability,A-427; first compound 0.5 µM,1.06
same,relative viability,NCI-H2009; first compound 0.005 µM,1.16
same,relative viability,NCI-H2009; first compound 0.01581 µM,1.08
same,relative viability,NCI-H2009; first compound 0.05 µM,1.29
same,relative viability,NCI-H2009; first compound 0.1581 µM,1.22
same,relative viability,NCI-H2009; first compound 0.5 µM,1.19
same,relative viability,UMC-11; first compound 0.005 µM,1.11
same,relative viability,UMC-11; first compound 0.01581 µM,0.846
same,relative viability,UMC-11; first compound 0.05 µM,0.964
same,relative viability,UMC-11; first compound 0.5 µM,0.959
same,relative viability,EBC-1; first compound 0.005 µM,0.79
same,relative viability,EBC-1; first compound 0.01581 µM,0.924
same,relative viability,EBC-1; first compound 0.05 µM,0.811
same,relative viability,EBC-1; first compound 0.1581 µM,0.59
same,relative viability,EBC-1; first compound 0.5 µM,0.74
same,relative viability,IA-LM; first compound 0.005 µM,0.659
same,relative viability,IA-LM; first compound 0.01581 µM,0.623
same,relative viability,IA-LM; first compound 0.05 µM,0.718
same,relative viability,IA-LM; first compound 0.1581 µM,0.597
same,relative viability,IA-LM; first compound 0.5 µM,0.531
